Data on 7 molecules can be found in patent US20050192547A1, “Combinations of antiseptic and antibiotic agents containing medical devices” (priority 2002, published 2005).

Converted amounts (≈) assume the structure as drawn. Like-named read-outs stand apart in the source and are kept apart here.

In data set [1] the test system is S. epidermidis. Briefly: Minimum inhibitory concentration in Trypticase Soy Broth, synergy (fractional inhibitory concentration). The class given is cell-based, Staphylococcus epidermidis.
The test system of data set [2] is S. epidermidis. As to the kind of experiment: microbe, parasite or virus in culture. It counts as cell-based, Staphylococcus epidermidis. As to conditions: for MIC: Staphylococcus epidermidis.
For data set [3] the following is noted: tetrahydrofuran/methanol solvent systems.
The mark [4] stands for this setting: after 10-20 passages, inoculum 10^4 cfu/ml.
The mark [5] stands for this setting: after 10 transfers, inoculum 10^6 cfu/ml.
[6] abbreviates: Staphylococcus epidermidis, inoculum of 10^4 cfu/ml, read-out: MIC.

As to `Oc1cc(Cl)ccc1Oc1ccc(Cl)cc1Cl` [Triclosan (T), triclosan], the MIC in the data set on S. epidermidis [1] (Staphylococcus epidermidis) amounted to 0.35 µg/mL; with S. epidermidis [2] (read-out: MIC AFTER PASSAGE), 2.5 µg/mL (≈ 8.63 µM); in the data set on S. epidermidis [2] (read-out: MIC BEFORE PASSAGE), 0.35 µg/mL (≈ 1.21 µM). For the same molecule, the “INCREASE IN MIC” value with S. epidermidis [2] (setting [4]) and in the data set with S. epidermidis [2] (setting [5]) was 7 fold throughout.

Regarding `NC[C@H]1O[C@H](O[C@H]2[C@H](O)[C@@H](O[C@H]3O[C@H](CO)[C@@H](O)[C@H](N)[C@H]3O)[C@H](N)C[C@@H]2N)[C@H](N)C[C@@H]1O` [Tobramycin (Tb), tobramycin], the MIC in the data set on S. epidermidis [2] (read-out: MIC AFTER PASSAGE) amounted to 0.5 µg/mL (≈ 1.07 µM); in the data set with S. epidermidis [2] (read-out: MIC BEFORE PASSAGE) it was 0.025 µg/mL (≈ 0.0535 µM). In addition, the “INCREASE IN MIC” value in the data set with S. epidermidis [2] (setting [4]) stood at 20 fold.

Regarding polyhexamethylenebiguanide [PHMB], in the data set on S. epidermidis [2], the “INCREASE IN MIC” value was found to be 1.0 fold, the “MIC AFTER PASSAGE” value stood at 0.31 µg/mL and the “MIC BEFORE PASSAGE” value was determined as 0.31 µg/mL.

Take `CN(C)c1ccc(O)c2c1C[C@H]1C[C@H]3[C@H](N(C)C)C(O)=C(C(N)=O)C(=O)[C@@]3(O)C(O)=C1C2=O` [Minocycline (M), minocycline]: the MIC in the data set with S. epidermidis [1] (setting [6]) worked out at 0.078 µg/mL; with S. epidermidis [2] (read-out: MIC AFTER PASSAGE), 0.156 µg/mL (≈ 0.341 µM). The figures for the “INCREASE IN MIC” value with S. epidermidis [2] (setting [4]) and with S. epidermidis [2] (setting [5]) were 2 fold and 4 fold, respectively.

For `CCn1cc(C(=O)O)c(=O)c2cc(F)c(N3CCNCC3)cc21` [Norfloxacin (Nf), norfloxacin], the MIC with S. epidermidis [1] (setting [6]) amounted to 0.05 µg/mL; in the data set with S. epidermidis [2] (read-out: MIC AFTER PASSAGE), 2 µg/mL (≈ 6.26 µM). In addition, in data set [3], the “upper limit incorporated owing to low solubility” value was “about 0.5 percent (w/v)”. Further, in the data set on S. epidermidis [2] (setting [4]), the “INCREASE IN MIC” value was determined as 40 fold.

`CC(=O)O.CC(=O)O.NC(=N\CCCCCC/N=C(N)/N=C(\N)Nc1ccc(Cl)cc1)/N=C(\N)Nc1ccc(Cl)cc1` [Chlorhexidine (CHX), chlorhexidine diacetate]: in the data set with S. epidermidis [1] (inoculum of 10^4 cfu/ml), the MIC is 0.5 µg/mL. In the data set on S. epidermidis [2], the “INCREASE IN MIC” value is 2 fold, the “MIC AFTER PASSAGE” value turned out to be 1.0 µg/mL and the “MIC BEFORE PASSAGE” value stood at 0.5 µg/mL.

On to `CO[C@H]1/C=C/O[C@@]2(C)Oc3c(C)c(O)c4c(O)c(c(/C=N/N5CCN(C)CC5)c(O)c4c3C2=O)NC(=O)/C(C)=C\C=C\[C@H](C)[C@H](O)[C@@H](C)[C@@H](O)[C@@H](C)[C@H](OC(C)=O)[C@@H]1C` [Rifampin (R), rifampin], for which the figures for the MIC with S. epidermidis [2] (read-out: MIC AFTER PASSAGE) and with S. epidermidis [2] (read-out: MIC BEFORE PASSAGE) were 500 µg/mL (≈ 608 µM) and 0.0195 µg/mL (≈ 0.0237 µM), respectively. Further, in the data set with S. epidermidis [2] (setting [4]), the “INCREASE IN MIC” value was 25,000 fold.
